Test results: ChEMBL document CHEMBL1765078, “17-Hydroxycyclooctatin, a fused 5-8-5 ring diterpene, from Streptomyces sp. MTE4a” (J Nat Prod, 2011)
The source made the active and inactive calls. No cut-off for these calls is given here.

Test system: Staphylococcus aureus
Assay: Antibacterial activity against Staphylococcus aureus at 1 mg/ml
Assay type: functional, organism-based

C[C@H](CO)[C@H]1CC[C@]2(C)C[C@@H]3[C@H](CO)C[C@@H](O)[C@H]3[C@@](C)(O)C/C=C/12
Activity: inactive
